Source: patent US8268366B2, “Cosmetic composition containing salt-fermented extract of natural materials” (Amorepacific Corporation, priority 2008, dated 2012)

What was measured:
collagenase = test: Measurement of collagenase expression inhibitory activity in human fibroblasts; type: cell-based; details: human fibroblasts treated at 10^−4 mole for 24 hours; untreated control group set as 100
Experimental: The collagenase expression inhibitory activity of the extracts of natural materials, prepared in Comparative Examples 1 and 2, and the salt-fermented extracts of natural materials, prepared in Examples 1 to 7, were measured comparatively with those of tocopherol and EGCG. […] Tocopherol and EGCG, which are antioxidant substances, are known to prevent skin aging by regenerating the epidermal cells of the skin.
In the test, human fibroblasts were seeded into a 96-well microtiter plate containing DMEM (Dulbecco's Modified Eagle's Media) medium containing 2.5% fetal bovine serum to a density of 5,000 cells/well and were cultured to a confluence of about 90%. […]
The collected cell culture broths were measured for collagenase production using a commercially available collagenase measurement device (Amersham Phamasia, USA). […]
The absorbance of the 96-well plate having a yellow color was measured at 405 nm using an absorbance spectrometer, and the degree of synthesis of collagenase was calculated according to the following Equation 1. Herein, the absorbance of the cell culture broth collected from the group not treated with the composition was used as a control. That is, the expression of collagenase in the control group was set as 100, and the expression of collagenase in the group treated with the composition was calculated relative to the control group.

procollagen = test: Test of the effect of promoting procollagen production in human fibroblasts; type: cell-based; details: human fibroblasts treated at 10^−4 mole for 24 hours; procollagen type-1 C-peptide EIA; untreated control group set as 100
Experimental: Procollagen is a collagen production-inducing substance necessary for collagen production and aging prevention, and if the degree of production of procollagen is high, the degree of production of collagen is also high, and thus the production of skin wrinkles can be prevented. Also, vitamin C is known as a component essential for the synthesis of collagen. […] The cell culture broths were then collected. After 24 hours, the amount of released procollagen in the medium was measured with a procollagen type-1 C-peptide EIA kit (MK101, Takara, Japan). Based on the measurement results, the production of procollagen was calculated according to the following Equation 2. Herein, the production of procollagen collected from the group not treated with the composition was used as a control group. […] [formula]

## tocopherol
collagenase
  Collagenase expression (%): 75%

## O=C(O[C@@H]1Cc2c(O)cc(O)cc2O[C@@H]1c1cc(O)c(O)c(O)c1)c1cc(O)c(O)c(O)c1 [EGCG]
collagenase
  Collagenase expression (%): 60%

## O=C1O[C@H]([C@@H](O)CO)C(O)=C1O [Vitamin C, vitamin C]
procollagen
  Procollagen production (%): 120%
